Source: patent US4933497A, “Preparation of hydroxybenzaldehydes by hydrocarbonylation of halophenols” (Rhone-Poulenc Chimie, priority 1988, dated 1990)

Experiments:
[1] = in water (generally at 25° C.); cited from earlier work
[2] = water
[3] = in water; cited from earlier work

SMILES | pKa of the halophenol [2] | pKa of the phosphine [3] | further results
CN(C)c1ccncc1 [4-dimethylaminopyridine] | – | – | pKa of the conjugate acid of the amine [1]: 9.55
Oc1ccccc1Br [2-bromophenol] | 8.55 | – | –
CCOc1cc(Br)ccc1O [4-bromo-2-ethoxyphenol] | ~9.5 | – | –
COc1cc(Br)ccc1O [4-bromo-2-methoxyphenol] | 9.5 | – | –
c1ccc(CP(Cc2ccccc2)Cc2ccccc2)cc1 [tribenzylphosphine] | – | 6.0 | –
c1ccc(P(c2ccccc2)c2ccccc2)cc1 [triphenylphosphine, reference compound] | – | 2.74 | –
C1CCC(P(C2CCCCC2)C2CCCCC2)CC1 [tricyclohexylphosphine] | – | 9.7 | –
CCP(CC)CC [triethylphosphine] | – | 8.69 | –
